How the values were obtained:
[1] = tested on: MyoF system [differentiated lung myofibroblasts+(TNFα and TGFβ)]; experiment: BioMAP MyoF system; format: cell-based, Human
From the text: (§1) In this study LMW-DS was characterized by profiling in the BioMAP® Diversity PLUS panel. The BioMAP® panel consists of human primary cell-based systems designed to model different aspects of the human body in an in vitro format. The 12 systems in the BioMAP® Diversity PLUS panel (Table 32) allow test agent characterization in an unbiased way across a broad set of systems modeling various human disease states. The BioMA®P systems are constructed with one or more primary cell types from healthy human donors, with stimuli, such as cytokines or growth factors, added to capture relevant signaling networks that naturally occur in human tissue or pathological conditions. […]
Systems are derived from either single cell types or co-culture systems. […] Test agents prepared in either DMSO (small molecules; final concentration 0.1%) or PBS (biologics) are added at the indicated concentrations 1-hr before stimulation, and remain in culture for 24-hrs or as otherwise indicated (48-hrs, MyoF system; 72-hrs, BT system (soluble readouts); 168-hrs, BT system (secreted IgG)). […] Soluble factors from supernatants are quantified using either HTRF® detection, bead-based multiplex immunoassay or capture ELISA. Overt adverse effects of test agents on cell proliferation and viability (cytotoxicity) are detected by sulforhodamine B (SRB) staining, for adherent cells, and alamarBlue® reduction for cells in suspension. […]

[2] = tested on: /Mphg system [HUVEC and M1 macrophages+Zymosan (TLR2 ligand)]; experiment: BioMAP /Mphg system; format: cell-based, Human
From the text: as §1, with “conditions. Vascular biology is modeled in both a Th1 (3C system) and a Th2 (4H system) inflammatory environment, as well as in a Th1 inflammatory state specific to arterial smooth muscle cells (CASM3C system).” for “conditions.”
Systems are derived from either single cell types or co-culture systems. […] Test agents prepared in either DMSO (small molecules; final concentration 0.1%) or PBS (biologics) are added at the indicated concentrations 1-hr before stimulation, and remain in culture for 24-hrs or as otherwise indicated (48-hrs, MyoF system; 72-hrs, BT system (soluble readouts); 168-hrs, BT system (secreted IgG)). […]

Substance: low molecular weight dextran sulfate [LMW-DS]
- biomarker activities modulated [1]: merely IL-8
- Increased biomarker activity ([1]; MyoF system): IL-8
- Increased biomarker activity [2]: IL-8, CD69
